We go through 27 compounds from US9085555B2, “Complement pathway modulators and uses thereof” (priority 2011, dated 2015).

pIC50: −log10 of the molar value.

One assay deals with Factor D (Homo sapiens (Human), UniProt P00746). The assay can be described thus: biochemical. The assay is classed as biochemical.
Sequence of Factor D (P00746 26-253): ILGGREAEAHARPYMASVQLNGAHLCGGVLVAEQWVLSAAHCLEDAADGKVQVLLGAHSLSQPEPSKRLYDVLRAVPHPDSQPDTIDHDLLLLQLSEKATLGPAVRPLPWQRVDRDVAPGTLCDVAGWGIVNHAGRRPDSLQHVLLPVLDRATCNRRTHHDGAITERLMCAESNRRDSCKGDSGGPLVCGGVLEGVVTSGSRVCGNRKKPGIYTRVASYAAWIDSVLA
Conditions: not given
As for `[2H]C([2H])([2H])C(=O)c1cn(CC(=O)N2C[C@H](F)[C@@H](OC)[C@H]2C(=O)NCc2cccc(Cl)c2F)c2ccccc12` [Example 619, (2S,3S,4S)-1-[2-(3-Acetyl-d3-indol-1-yl)-acetyl]-4-fluoro-3-methoxy-pyrrolidine-2-carboxylic acid 3-chloro-2-fluoro-benzylamide], the negative-log IC50 (pIC50) (as a rule, the negative decadic logarithm of the IC50, by convention in mol/L) was 7.85.

The assay is the same for the next values; noted with them: read-out: IC50.
With `COC(=O)[C@@H](NC(=O)[C@@H]1C[C@H](N)CN1C(=O)Nc1cn(C(N)=O)c2ccccc12)c1ccccc1` [Example 98, (S)-{[(2S,4S)-4-Amino-1-(1-carbamoyl-1H-indol-3-ylcarbamoyl)-pyrrolidine-2-carbonyl]-amino}-phenyl-acetic acid methyl ester], the pIC50 was 5.73.
The same measure, in the same setting: as for `COCCOc1ccc2c(c1)c(C(C)=O)nn2CC(=O)N1[C@@H]2C[C@@H]2C[C@H]1C(=O)Nc1cccc(OC(F)(F)F)c1F` [Example 770, (1R,3S,5R)-2-{2-[3-Acetyl-5-(2-methoxy-ethoxy)-indazol-1-yl]-acetyl}-2-aza-bicyclo[3.1.0]hexane-3-carboxylic acid (2-fluoro-3-trifluoromethoxy-phenyl)-amide], the figure is 8.05.
As to `NC(=O)c1cn(CC(=O)N2C[C@H](F)C[C@H]2C(=O)NCc2cccc(Cl)c2F)c2cc(Cl)ccc12` [Example 491, 6-Chloro-1-{2-[(2S,4R)-2-(3-chloro-2-fluoro-benzyl-carbamoyl)-4-fluoro-pyrrolidin-1-yl]-2-oxo-ethyl}-1H-indole-3-carboxylic acid amide], the pIC50 is 7.55.
The same measure, in the same setting: the result for `NC(=O)n1cc(CC(=O)N2[C@@H]3C[C@@H]3C[C@H]2C(=O)Nc2cccc(OC(F)(F)F)c2)c2cc(OCCO)ccc21` [Example 455, 5-(2-Hydroxy-ethoxy)-3-{2-oxo-2-[(1R,3S,5R)-3-(3-trifluoromethoxy-phenylcarbamoyl)-2-aza-bicyclo[3.1.0]hex-2-yl]-ethyl}-indole-1-carboxylic acid amide] reads 6.12.
Still for that read-out and setting: the result for `COc1cc(NC(=O)[C@@H]2C[C@@H](F)CN2C(=O)Nc2cn(C(N)=O)c3ccccc23)ccn1` [Example 309, (2S,4R)-4-Fluoro-pyrrolidine-1,2-dicarboxylic acid 1-[(1-carbamoyl-1H-indol-3-yl)-amide] 2-[(2-methoxy-pyridin-4-yl)-amide]] reads 6.26.
Regarding `COC(=O)c1ccc2c(C(C)=O)cn(CC(=O)N3C[C@](C)(F)C[C@H]3C(=O)NCc3cccc(Cl)c3F)c2c1` [Example 548, 3-Acetyl-1-{2-[(2S,4R)-2-(3-chloro-2-fluoro-benzylcarbamoyl)-4-fluoro-4-methyl-pyrrolidin-1-yl]-2-oxo-ethyl}-1H-indole-6-carboxylic acid methyl ester], the negative-log IC50 (pIC50) was 6.44.
With `CN(C)CCOc1ccc2c(c1)c(NC(=O)N1[C@@H]3C[C@@H]3C[C@H]1C(=O)NCc1cccc(Cl)c1F)cn2C(N)=O` [Example 387, 1R,3S,5R)-2-Aza-bicyclo[3.1.0]hexane-2,3-dicarboxylic acid 2-{[1-carbamoyl-5-(2-dimethylamino-ethoxy)-1H-indol-3-yl]-amide}3-(3-chloro-2-fluoro-benzylamide], the pIC50 is 7.24.
Same read-out and setting: as for `N#C[C@@H]1C[C@@H](C(=O)Nc2cccc(OC(F)(F)F)c2)N(C(=O)Nc2cn(C(N)=O)c3ccccc23)C1` [Example 256, (2S,4R)-4-cyano-pyrrolidine-1,2-dicarboxylic acid 1-[(1-carbamoyl-1H-indol-3-yl)-amide]2-[(3-trifluoromethoxy-phenyl)-amide]], the figure is 5.40; as for `NC(=O)n1cc(NC(=O)N2CC[C@@H](N)[C@H]2C(=O)NCc2cccc(Cl)c2F)c2ccccc21` [Example 417, 2S,3R)-3-Amino-pyrrolidine-1,2-dicarboxylic acid 1-[(1-carbamoyl-1H-indol-3-yl)-amide]2-(3-chloro-2-fluoro-benzylamide], 7.40; as for `COC(=O)c1cc(Br)cc(NC(=O)[C@@H]2SCCN2C(=O)Nc2cn(C(N)=O)c3ccccc23)c1` [Example 198, 3-Bromo-5-{[(S)-3-(1-carbamoyl-1H-indol-3-ylcarbamoyl)-thiazolidine-2-carbonyl]-amino}-benzoic acid methyl ester], 6.45.
For `NC(=O)n1cc(NC(=O)N2C[C@H](F)C[C@H]2C(=O)NCc2cccc(O)c2)c2ccccc21` [Example 9, (2S,4R)-4-Fluoro-pyrrolidine-1,2-dicarboxylic acid 1-[(1-carbamoyl-1H-indol-3-yl)-amide] 2-(3-hydroxy-benzylamide)], the negative-log IC50 (pIC50) was 6.60.
`C[C@@]1(C(=O)Nc2cccc(OC(F)(F)F)c2)CCCN1C(=O)Nc1cn(C(N)=O)c2ccccc12` [Example 192, (S)-2-Methyl-pyrrolidine-1,2-dicarboxylic acid 1-[(1-carbamoyl-1H-indol-3-yl)-amide] 2-[(3-trifluoromethoxy-phenyl)-amide]]: the negative-log IC50 (pIC50) is 4.75.
Still for that read-out and setting: the result for `CC(=O)c1cn(CC(=O)N2CCS[C@H]2C(=O)NCc2cccc(Cl)c2F)c2ncccc12` [Example 513, (S)-3-[2-(3-Acetyl-pyrrolo[2,3-b]pyridin-1-yl)-acetyl]-thiazolidine-2-carboxylic acid 3-chloro-2-fluoro-benzylamide] reads 6.71; that for `NC(=O)c1nn(CC(=O)N2[C@@H]3C[C@@H]3C[C@H]2C(=O)Nc2cccc(OC(F)(F)F)c2F)c2cnc(C3CC3)cc12` [Example 719, 5-Cyclopropyl-1-(2-((1R,3S,5R)-3-((2-fluoro-3-(trifluoromethoxy)phenyl)carbamoyl)-2-azabicyclo [3.1.0]hexan-2-yl)-2-oxoethyl)-1H-pyrazolo[3,4-c]pyridine-3-carboxamide], 7.89.
In the case of `NC(=O)c1cccc(NC(=O)[C@@H]2CCCN2C(=O)Nc2cn(C(N)=O)c3ccccc23)c1` [Example 324, (S)-Pyrrolidine-1,2-dicarboxylic acid 1-[(1-carbamoyl-1H-indol-3-yl)-amino] 2-[(3-carbamoyl-phenyl)-amide]], the pIC50 is 5.37.
Consider `CC(=O)c1cn(CC(=O)N2[C@@H]3C[C@@H]3C[C@H]2C(=O)N[C@H](CN(C)C)c2cccc(Cl)c2F)c2ccccc12` [Example 522, (1R,3S,5R)-2-[2-(3-Acetyl-indol-1-yl)-acetyl]-2-aza-bicyclo[3.1.0]hexane-3-carboxylic acid [(S)-1-(3-chloro-2-fluoro-phenyl)-2-dimethylamino-ethyl]-amide], for which the pIC50 was 6.38.
Same read-out and setting: the result for `Cc1ccc(CNC(=O)[C@@H]2C[C@H](N)CN2C(=O)Nc2cn(C(N)=O)c3ccccc23)cc1Cl` [Example 59, (2S,4S)-4-Amino-pyrrolidine-1,2-dicarboxylic acid 1-[(1-carbamoyl-1H-indol-3-yl)-amide] 2-(3-chloro-4-methyl-benzylamide)] reads 5.19; that for `NC(=O)n1cc(CC(=O)N2[C@@H]3C[C@@H]3C[C@H]2C(=O)NCc2cccc(Cl)c2F)c2cc(OCCO)ccc21` [Example 453, 3-{2-[(1R,3S,5R)-3-(3-Chloro-2-fluoro-benzylcarbamoyl)-2-aza-bicyclo[3.1.0]hex-2-yl]-2-oxo-ethyl}-5-(2-hydroxy-ethoxy)-indole-1-carboxylic acid amide], 7.89; that for `NC(=O)n1cc(NC(=O)N2C[C@H](F)[C@@H](N)[C@H]2C(=O)NCc2cccc(Cl)c2F)c2ccccc21` [Example 431, 2S,3S,4S)-3-Amino-4-fluoro-pyrrolidine-1,2-dicarboxylic acid 1-[(1-carbamoyl-1H-indol-3-yl)-amide]2-(3-chloro-2-fluorobenzylamide], 7.51.
For `CC(=O)c1cn(CC(=O)N2C[C@H](F)C[C@H]2C(=O)NCc2cccc(Cl)c2F)c2ccc(OCc3ccccc3)cc12` [Example 508, (2S,4R)-1-[2-(3-Acetyl-5-benzyloxy-indol-1-yl)-acetyl]-4-fluoro-pyrrolidine-2-carboxylic acid 3-chloro-2-fluoro-benzylamide], the pIC50 is 7.92.
For the compound `COC(=O)[C@H]1C[C@@H](C(=O)NCc2c(F)ccc(Cl)c2F)N(C(=O)Nc2cn(C(N)=O)c3ccccc23)C1` [Example 353, (3S,5S)-1-(1-carbamoyl-1H-indol-3-ylcarbamoyl)-5-(3-chloro-2,6-difluoro-benzylcarbamoyl)-pyrrolidine-3-carboxylic acid methyl ester], the negative-log IC50 (pIC50) is 6.60.
Take `Cc1cc2c(C(N)=O)nn(CC(=O)N3[C@@H]4C[C@@H]4C[C@H]3C(=O)N[C@H](C)c3cccc(Cl)c3F)c2c(C)n1` [Example 696, 1-(2-{(1R,3S,5R)-3-[(R)-1-(3-Chloro-2-fluoro-phenyl)-ethylcarbamoyl]-2-aza-bicyclo[3.1.0]hex-2-yl}-2-oxo-ethyl)-5,7-dimethyl-1H-pyrazolo[3,4-c]pyridine-3-carboxylic acid amide]: the pIC50 was 7.00.
As for `NC(=O)c1nn(CC(=O)N2[C@@H]3C[C@@H]3C[C@H]2C(=O)Nc2cccc(OC(F)F)c2F)c2ccccc12` [Example 729, 1-{2-[(1R,3S,5R)-3-(3-Difluoromethoxy-2-fluoro-phenylcarbamoyl)-2-aza-bicyclo[3.1.0]hex-2-yl]-2-oxo-ethyl}-1H-indazole-3-carboxylic acid amide], the negative-log IC50 (pIC50) is 7.21.
Same read-out and setting: the result for `COC[C@@H](NC(=O)[C@@H]1[C@@H]2C[C@@H]2CN1C(=O)Nc1cn(C(N)=O)c2ccccc12)c1cccc(Cl)c1F` [Example 231, (1R,2S,5S)-3-Aza-bicyclo[3.1.0]hexane-2,3-dicarboxylic acid 3-[(1-carbamoyl-1H-indol-3-yl)-amide] 2-{[(S)-1-(3-chloro-2-fluoro-phenyl)-2-methoxy-ethyl]-amide}] reads 6.99; that for `CCOC(=O)c1cc(Br)c(F)c(NC(=O)[C@@H]2C[C@@H](F)CN2C(=O)Nc2cn(C(N)=O)c3ccccc23)c1` [Example 333, 3-Bromo-5-{[(2S,4R)-1-(1-carbamoyl-1H-indol-3-ylcarbamoyl)-4-fluoro-pyrrolidine-2-carbonyl]-amino}-4-fluoro-benzoic acid ethyl ester], 7.33.
With `COc1ccc2c(C(C)=O)cn(CC(=O)N3C[C@H](F)C[C@H]3C(=O)NCc3cccc(Cl)c3F)c2c1` [Example 500, (2S,4R)-1-[2-(3-Acetyl-6-methoxy-indol-1-yl)-acetyl]-4-fluoro-pyrrolidine-2-carboxylic acid 3-chloro-2-fluoro-benzylamide], the pIC50 is 7.44.
